{"source": "paper PMC9411606", "about": "“Control cell migration by engineering integrin ligand assembly” (Nature Communications, 2022)", "key": {"[1]": {"system": "integrin knockdown HuH-7 cells", "experiment": "Cell adhesion assay, integrin knockdown HuH-7", "type": "cell-based, human", "conditions": "coated with 100 µM FFFIKLLI, n = 30", "method": "(§1) Integrin β1 shRNA plasmid (#sc-29375-SH), Integrin α3 shRNA plasmid (#sc-35684-SH), Integrin α6 shRNA plasmid (#sc-43129-SH), and control shRNA plasmid-A (#sc-108060) were purchased from Santa Cruz Biotechnology for knockdown of the target integrins. The knockdown efficiency was evaluated by western blotting.\nThe 96-well microplates wells were coated with peptide assemblies (the concentration of FFFIKLLI was kept at 100 μM constantly) for 12 hr at 37 °C before blocked with the Blocking Buffer (2% BSA, 1 mM CaCI2 and 1 mM MnCI2 in PBS) for 1 hr at 37 °C. Cells were collected from culture dishes and suspended in the Blocking Buffer containing anti-laminin-5 (P3H9-2, MAB1947, Chemicon, 5 μg/ml), anti-fibronectin (IST-9, ab6328, Abcam, 20 μg/ml) or IgG isotype control (20 μg/ml, Abcam) before immediately seeded to the coated well (20,000 cells/well) and allowed to incubate at 37 °C for 1 h. The wells were washed for three times with the Blocking Buffer and the phase-contrast images were captured by IncucyteS3 (Essen Bioscience) with a 10× objective."}, "[2]": {"system": "integrin knockdown HuH-7 cells", "experiment": "Wound healing assay, integrin knockdown HuH-7", "type": "cell-based, human", "conditions": "48 hr wound healing, 100 µM, n = 6", "method": "(§2) Healthy cells were seeded in 96-well Image Lock plates (Essen Bioscience, UK). Each well contained 2 ×10^4 to 5 × 10^4 cells in 100 μL of complete cell culture medium. Cell monolayer with approximately 90% confluence formed after 12 hr and cells were next starved in serum-free culture medium for 12 hrs. Homogenous scratch wounds with a width of about 700 μm were made by an Essen BioScienceWound Maker. The detached cells were washed with Dulbecco’s Buffered Saline (DPBS, Gibco) 3 times. Cells were incubated with 100 μL of culture medium containing 0.5 % FBS and desired concentration of each peptide. Wound closure was monitored by an IncucyteS3 (Essen Bioscience) with a 10x objective. Images for each well were acquired every 2 hr to 8 hr for 2 days or until the wounds were closed completely. The wound healing rate was quantified by Incucyte Scratch Wound Analysis Module (Essen Bioscience). The experiments were repeated at least 3 times, and the results were presented as mean ± standard deviation of at least 3 independent experiments.\nas §1"}, "[3]": {"system": "integrin α3β1 expressing cells (HuH-7, HeLa, HepG2, A549, MKN1, and U-87 MG)", "experiment": "Wound healing assay, integrin α3β1 expressing cells", "type": "cell-based, human", "conditions": "10-200 µM", "method": "as §2"}, "[4]": {"system": "RhoA in HuH-7 cells (DORA-RhoA)", "experiment": "RhoA activity by FRET", "type": "cell-based, human", "description": "The mGFP-paxillin expression vector was a gift from A. Kusumi (Okinawa Institute of Science and Technology, Japan). pGFP-FAK and pEGFP-vinculin were gifts from Kenneth Yamada (RRID: Addgene_50513 and Addgene¬_50515)[39], EGFP-talin, mVenus-Integrin-Beta1 and mRuby-Lifeact-7 was a gift from Michael Davidson (RRID: Addgene_54560). pEGFPC1/Gg Vinculin 1-258 (akaVD1) was a gift from S. Craig (RRID: Addgene_46270)[40]. The Rac1 FRET Sensor, pCAGGS-RaichuEV-Rac1was generously provided by K. Aoki (National Institute for Basic Biology, Japan)[41] and the RhoA FRET sensor, DORA-RhoA was generously provided by Yi I. Wu (University of Connecticut Health Center, USA)[42]. The expression vectors for Rac1/Tiam1 activation system (Lyn11-linker-FRB, YFP-FKBP, YFP-FKBP-linker-Tiam1, and pTriEx-PA-Rac1) was generously provided by T. Inoue (Johns Hopkins University, USA)[43]."}, "[5]": {"experiment": "FTIR microscopy of peptide assemblies", "type": "physicochemical", "conditions": "freeze-dried on CaF2, aqueous assembly", "description": "To prepare FTIR samples, an aliquot of the peptide solution was dropped on a TS CaF2 window (5 mm diameter) (Edmund Optics, Japan) and freeze-dried using a lyophilizer (Freeze Dryer, Labconco). The CaF2 Window with assembled nanofilaments was mounted for FTIR microscopic analysis. FTIR microscopic analysis of a plain CaF2 Window served as the reference. An FTIR microscope (Nicolet iN10, Thermo Fisher Scientific) equipped with an MCT detector was used for collecting IR spectra. Spectra ranging from 4000 to 650 cm^−1 were obtained in transmission mode, aperture of 50 μm, with the resolution of 2 cm^−1. Each spectrum was derived from an average of 128 scans for each sample."}, "HuH-7 cells": {"system": "HuH-7 cells", "experiment": "Cell spreading evaluation (phalloidin staining)", "type": "cell-based, human", "method": "All microscope imaging was performed with a Zeiss LSM 780 or Olympus SD-OSR. To assess the F-actin organization after certain treatments, cells were seeded on a glass-bottom culture dish (D11130H, Matsunami). After culture with the peptides, cells were fixed with 4% paraformaldehyde phosphate buffer solution (PFA, 30525-89-4, Wako) for 10 min at room temperature, washed, and permeabilized with 0.1% Triton X-100 (Sigma) in PBS for 15 min. Cells were washed with DPBS twice and incubated with ActinRed (Rhodamine-conjugated phalloidin, R37112, Invitrogen) or ActinGreen (Alexa-Fluor-488-conjugated phalloidin, R37110, Invitrogen) for 15 min at room temperature. Cells were washed with DPBS before being imaged. Morphological characteristics, including cell spreading area and perimeter area ratio, were quantified by Image J."}, "[6]": {"system": "MCF-7 and Ect1/E6E7 cells", "experiment": "Wound healing assay, cells lacking integrin α3β1", "type": "cell-based, human", "conditions": "10-200 µM, 48 hr", "method": "as §2"}, "[7]": {"conditions": "vin258-transfected HuH-7, 12 hr, n = 51 cells, mean"}}, "note": "Entries after “also recorded” stand apart in the source; their conditions may differ."}
{"sequence": "FFFIKLLI [assembling ligand: FFF coupled to the N-terminus of IKLLI; self-assembles into nanofilaments]", "values": [{"measurement": "adherence after knockdown of α3 or β1 subunit", "setting": "[1]", "value": "significantly reduced their adherence"}, {"measurement": "suppression efficacy after knockdown of α3 or β1 integrin subunit", "setting": "[2]", "value": "attenuated the suppression efficacy"}, {"measurement": "suppression efficacy after knockdown of α6 subunit (attenuated?)", "setting": "[2]", "value": "did not"}, {"measurement": "effect on cell migration", "setting": "[3]", "value": "suppression effect"}, {"measurement": "RhoA activity, FRET/CFP", "setting": "[4]; 12 hr, n = 50 cells, mean", "value": 1.263}, {"measurement": "RhoA activity", "setting": "[4]; HuH-7", "value": "great inhibition; also recorded: suppressed RhoA activity; also recorded: global inhibition"}, {"measurement": "hydrogen bonding by FTIR", "setting": "[5]", "value": "NH-N"}, {"measurement": "Perimeter / Area", "setting": "HuH-7 cells; Tiam1/Rac1-preactivated HuH-7, 12 hr, n = 64 cells, p = 0.5635 vs Ctrl", "value": 0.1130, "unit": "µm-1"}, {"measurement": "Spreading area", "setting": "HuH-7 cells; Tiam1/Rac1-preactivated HuH-7, 12 hr, n = 64 cells, p = 0.8317 vs Ctrl", "value": 4496, "unit": "µm2"}, {"measurement": "Spreading area", "setting": "HuH-7 cells; glass, FN or LM-5 coated dish (order not readable), 12 hr, value 2", "value": 1802, "unit": "µm2"}, {"measurement": "Spreading area", "setting": "HuH-7 cells; glass, FN or LM-5 coated dish (order not readable), 12 hr, value 3", "value": 1763, "unit": "µm2"}, {"measurement": "Perimeter / Area", "setting": "HuH-7 cells; [7]", "value": 0.2881, "unit": "µm-1"}, {"measurement": "Spreading area", "setting": "HuH-7 cells; [7]", "value": 2047, "unit": "µm2"}, {"measurement": "effect on cell migration", "setting": "[6]", "value": "negligible influence"}]}
